The subject of one assay is Erysiphe polygoni. Briefly: Powdery mildew on pinto bean, foliar application (ERY POL). It is filed as in vivo. To be noted: Erysiphe polygoni, similar procedure as barley (1,000 mg/l), read-out: Percent Reduction of Disease, ERY POL. As for the experimental part:
Compositions containing Compounds Nos. 1-81 were prepared by dissolving 0.24 grams of each of the compounds in 8 ml of acetone or other suitable inert solvent. Each of the resultant solutions was treated with 3 drops of TWEEN 20 (ethoxylated ethylene sorbitan monolaurate, a non-ionic surfactant)(I.C.I.), and water was added to form an emulsion. The degree of dilution with water was dictated by the desired concentration of the compound in the composition. The greater the quantity of water added, the lower the concentration of the compound in the composition, reported in milligrams per liter (mg/l) Ten plants of "Robust" variety barley were planted in each of a plurality of pots. Each pot was then either sprayed with one of the compositions of Example 9, at a composition concentration of 1,000 mg/l, or left unsprayed. For each pot sprayed, one pot was left unsprayed as a control. After the leaves of the sprayed pots were dried, the sprayed pots and the unsprayed control pots were placed in a greenhouse maintained at 21° C. All the pots were then inoculated with barley powdery mildew fungus, Erysiphe graminis. This inoculation was accomplished by distributing spores of the fungus over the leaves of the plants to be tested from plants which had previously been infected with the mildew disease. […] Again, percent control was computed by comparing the treatment scores with the scores of the untreated controls. The results are summarized in Table II under the heading "ERY GRA". Using a similar procedure as described above for the barley, pinto bean plants were prepared, treated and inoculated with the fungus Erysiphe polygoni. The results of this testing are summarized in Table II under the heading "ERY POL".

Another assay has as its system Scierotinia minor. Briefly: Fungal growth inhibition, treated disc on agar (SCL MIN). It is filed as cell-based. As to conditions: disc dipped in 500 mg/l, 29° C., read-out: Percent Growth Inhibition, SCL MIN.
The test system of the next assay is Erysiphe cichoracearum. The assay can be described thus: Powdery mildew of cucumber, systemic root uptake (CMS). The format is in vivo. As to conditions: 45 ml of 250 mg/l, 8 days after inoculation. As for the experimental part:
(§1) Compositions containing Compounds Nos. 1-81 were prepared by dissolving 0.24 grams of each of the compounds in 8 ml of acetone or other suitable inert solvent. Each of the resultant solutions was treated with 3 drops of TWEEN 20 (ethoxylated ethylene sorbitan monolaurate, a non-ionic surfactant)(I.C.I.), and water was added to form an emulsion. The degree of dilution with water was dictated by the desired concentration of the compound in the composition. The greater the quantity of water added, the lower the concentration of the compound in the composition, reported in milligrams per liter (mg/l) […] Upon reaching these ages, the plants were either treated with 45 ml of 250 mg/l concentration of the compositions of Example 9 or were left untreated. The untreated plants were used as controls. The 45 ml compositions saturated the soil of the treated pots without significant loss through drainage into the saucers below the pots. Twenty-four hours after the treatment with the compositions, both the barley and cucumber plants in all the pots, those treated and those untreated, were inoculated with powdery mildew fungus. This was accomplished by tapping leaves of previously infected barley and cucumber plants over the treated and untreated pots containing the barley and cucumber plants, respectively, to distribute spores of the fungus over the plants tested. […] Intermediate ratings were assigned depending on the degree of disease. […] The results of the powdery mildew disease control of barley are reported under the heading of "BMS". The results for cucumber mildew control are reported under the heading "CMS".

The test system of a further assay is Uromyces phaseoli. Briefly: Bean rust fungus eradicant test (URO PHA). The format is in vivo. To be noted: Uromyces phaseoli, 216 h, pinto bean, eradicant spray 2 days after inoculation, 1,000 mg/l; read-out: Percent Reduction of Disease, URO PHA. As for the experimental part:
Compositions containing Compounds Nos. 1-81 were prepared by dissolving 0.24 grams of each of the compounds in 8 ml of acetone or other suitable inert solvent. Each of the resultant solutions was treated with 3 drops of TWEEN 20 (ethoxylated ethylene sorbitan monolaurate, a non-ionic surfactant)(I.C.I.), and water was added to form an emulsion. The degree of dilution with water was dictated by the desired concentration of the compound in the composition. The greater the quantity of water added, the lower the concentration of the compound in the composition, reported in milligrams per liter (mg/l) A plurality of pots were each planted with two pinto bean plants, Phaseolus vulgaris, each, susceptible to rust disease. When the plants were 7 days old, at the primary leaf stage of growth, they were all sprayed with a suspension containing 20,000 spores of the bean rust fungus, Uromyces phaseoli, per ml. All the pots were then incubated in a controlled environmental chamber, maintained at 99% humidity and 21° C., for 24 hours to allow infection to occur. The plants were then removed from the incubator and allowed to dry. Two days after inoculation each of the infected plants was then either sprayed with one of the compositions of Example 9, at a dosage of 1,000 mg/l, or left unsprayed. The unsprayed plants acted as controls. All of the sprayed and unsprayed plants were then placed in a greenhouse at 21° C. for nine days to allow the disease to develop. […] Control of disease was determined by comparing treated plants with the untreated controls. The results, expressed as percent reduction of disease, are summarized in Table II under the heading "URO PHA".

Another assay concerns Botrytis cinerea. Briefly: Fungal growth inhibition, treated disc on agar (BOT CIN). The format is cell-based. As to conditions: Botrytis cinerea, disc dipped in 500 mg/l, 29° C., read-out: Percent Growth Inhibition, BOT CIN.
In a further assay the test system is Colletotrichum gossypii. Briefly: Fungal growth inhibition, treated disc on agar (COL GOS). As to conditions: Colletotrichum gossypii, disc dipped in 500 mg/l, 29° C., read-out: Percent Growth Inhibition, COL GOS. The format is cell-based.
The next assay concerns Fusarium oxysporum. The assay can be described thus: Fungal growth inhibition, treated disc on agar (FUS OXY). To be noted: Fusarium oxysporum, disc dipped in 500 mg/l, 29° C., read-out: Percent Growth Inhibition, FUS OXY. The format is cell-based.
A further assay has as its system Pythium ultimum. The assay can be described thus: Fungal growth inhibition, treated disc on agar (PYT ULT). To be noted: Globisporangium ultimum, disc dipped in 500 mg/l, 29° C., read-out: Percent Growth Inhibition, PYT ULT. It is filed as cell-based.
For a further assay, the system named is Septoria nodorum. Briefly: Fungal growth inhibition, treated disc on agar (SEP NOD). It is filed as cell-based. To be noted: Parastagonospora nodorum, disc dipped in 500 mg/l, 29° C., read-out: Percent Growth Inhibition, SEP NOD.
A further assay has as its system Erysiphe graminis. Briefly: Powdery mildew of barley, systemic root uptake (BMS). As to conditions: 45 ml of 250 mg/l, 8 days after inoculation. It is filed as in vivo. As for the experimental part: as §1
In a further assay the test system is Pyricularia oryzae. Briefly: whole plant or invertebrate. It is filed as in vivo. To be noted: Pyricularia oryzae, in Hordeum vulgare, foliar, 216 h, read-out: Percent Reduction of Disease, PYR ORY, barley, foliar, 1,000 mg/l.

Each structure is given as a SMILES string.

Source text for Colletotrichum gossypii: (§2) Filter paper discs, each 11 mm. in diameter, were dipped in each of the test solutions. The discs were allowed to air dry to drive off the acetone solvent. A number of untreated discs were used as controls.
(§3) The treated and untreated discs were then placed on agar plates and one of the following fungus species: Septoria nodorum (SEP NOD), Botrytis cinerea (BOT CIN), Fusarium oxysporum (FUS OXY), Pythium ultimum (PYT ULT), Rhizoctonia solani (RHI SOL), Colletotrichum gossypii (COL GOS), and Scierotinia minor (SCL MIN), was added to the center of each disc in the form of a culture plug with the fungus mat in contact with the paper of the test disc. Cercosporidium personatum (CER PER), was added to discs as a spore suspension (20,000 spores/ml) to the disc (two drops of spore suspension per disc), rather than a mycelial culture plug. The plates were then incubated at 29° C. in an oven.
(§4) With the exception of the discs containing Cercosporidium personatum, the discs were evaluated by first measuring the radius from the center of the fungus colony on the treated discs and on the untreated discs. Percent growth inhibition of each of the compounds tested was determined as a function of the difference between the radius of the fungus colony on the treated disc versus the radius of the fungus colony on the untreated disc.
Source text for Septoria nodorum: as §2, §3, §4

As for `N#CC(CCc1ccccc1)(CCc1ccccc1)c1cccnc1` [A, reference compound], the pest or weed control at 1000 µg/mL was determined as 15% in the assay on Erysiphe polygoni, 0% in the assay on Uromyces phaseoli and 10% with Pyricularia oryzae. Further, the inhibition (as a rule, how much of the control response was suppressed) at 500 µg/mL with Scierotinia minor turned out to be 10%; in the assay with Botrytis cinerea, 0%; in the assay on Colletotrichum gossypii it was 25%; in the assay with Fusarium oxysporum it was 10%; with Pythium ultimum, 10%; with Septoria nodorum, 0%. Further, in the assay on Erysiphe cichoracearum, the “Percent Reduction of Disease, CMS” value is 50%. Further, in the assay with Erysiphe graminis, the “Percent Reduction of Disease, BMS” value is reported as 15%.

As to `CC(C)(C)c1ccc(CC(C#N)(Cc2ccc(C(C)(C)C)cc2)c2cccnc2)cc1` [B, reference compound], the pest or weed control at 1000 µg/mL with Erysiphe polygoni and with Uromyces phaseoli was 0% each time. In addition, the inhibition at 500 µg/mL stood at 60% in the assay on Scierotinia minor; 0% in the assay with Botrytis cinerea; 0% in the assay with Colletotrichum gossypii; 0% with Fusarium oxysporum; 15% in the assay with Pythium ultimum; 10% with Septoria nodorum. Moreover, the “Percent Reduction of Disease, CMS” value with Erysiphe cichoracearum is 50%. For the same compound, in the assay with Erysiphe graminis, the “Percent Reduction of Disease, BMS” value stood at 10%.

As for `CCCC(C#N)(CCc1ccccc1)c1cccnc1` (centres unmarked) [Compound 1], the pest or weed control at 1000 µg/mL in the assay with Erysiphe polygoni was 95%; in the assay on Uromyces phaseoli it was 60%; in the assay with Pyricularia oryzae, 0%. Besides, the inhibition at 500 µg/mL in the assay on Scierotinia minor was determined as 100%; in the assay on Botrytis cinerea, 5%; in the assay with Colletotrichum gossypii, 100%; with Fusarium oxysporum it was 97%; in the assay with Pythium ultimum, 40%; with Septoria nodorum, 0%. In the assay with Erysiphe cichoracearum, the “Percent Reduction of Disease, CMS” value is 0%. For the same compound, in the assay with Erysiphe graminis, the “Percent Reduction of Disease, BMS” value was 60%.

For the compound `CCCCCCCC(C#N)(CCc1ccccc1)c1cccnc1` (centres unmarked) [Compound 2], the pest or weed control at 1000 µg/mL was determined as 100% in the assay with Erysiphe polygoni, 97% in the assay on Uromyces phaseoli and 45% in the assay on Pyricularia oryzae. Besides, the inhibition at 500 µg/mL in the assay with Scierotinia minor is 100%; in the assay on Botrytis cinerea, 60%; in the assay with Colletotrichum gossypii, 60%; in the assay on Fusarium oxysporum it was 30%; in the assay with Pythium ultimum, 0%; with Septoria nodorum it was 0%. In addition, the “Percent Reduction of Disease, CMS” value in the assay with Erysiphe cichoracearum was determined as 0%. For the same compound, the “Percent Reduction of Disease, BMS” value with Erysiphe graminis is listed as 0%.

For the compound `CCCCCC(C#N)(CCc1ccccc1)c1cccnc1` (centres unmarked) [Compound 3], the pest or weed control at 1000 µg/mL with Erysiphe polygoni, with Uromyces phaseoli and with Pyricularia oryzae was 100% throughout. Besides, the inhibition at 500 µg/mL with Scierotinia minor amounted to 100%; in the assay with Botrytis cinerea it was 100%; in the assay with Colletotrichum gossypii, 97%; with Fusarium oxysporum, 0%; with Pythium ultimum, 5%; in the assay with Septoria nodorum it was 86%. In addition, the “Percent Reduction of Disease, CMS” value with Erysiphe cichoracearum was 35%. Further, in the assay on Erysiphe graminis, the “Percent Reduction of Disease, BMS” value stood at 35%.

Consider `C#CCC(C#N)(CCc1ccccc1)c1cccnc1` (centres unmarked) [Compound 4], for which the pest or weed control at 1000 µg/mL in the assay with Erysiphe polygoni was found to be 90%; in the assay with Uromyces phaseoli it was 0%; with Pyricularia oryzae it was 50%. The inhibition at 500 µg/mL in the assay with Scierotinia minor worked out at 98%; with Botrytis cinerea it was 94%; in the assay on Colletotrichum gossypii, 100%; with Fusarium oxysporum, 100%; with Pythium ultimum, 100%; in the assay on Septoria nodorum, 92%. For the same compound, the “Percent Reduction of Disease, CMS” value in the assay on Erysiphe cichoracearum came out at 20%. Further, the “Percent Reduction of Disease, BMS” value with Erysiphe graminis is given as 35%.

On to `C=CCC(C#N)(CCc1ccccc1)c1cccnc1` (centres unmarked) [Compound 5], for which the pest or weed control at 1000 µg/mL in the assay on Erysiphe polygoni was determined as 90%; with Uromyces phaseoli, 90%; in the assay on Pyricularia oryzae, 83%. In addition, the inhibition at 500 µg/mL was 95% in the assay on Scierotinia minor; 100% in the assay with Botrytis cinerea; 97% with Colletotrichum gossypii; 76% in the assay with Fusarium oxysporum; 82% with Pythium ultimum; 50% in the assay with Septoria nodorum. In addition, the “Percent Reduction of Disease, CMS” value with Erysiphe cichoracearum amounted to 88%. For the same compound, in the assay with Erysiphe graminis, the “Percent Reduction of Disease, BMS” value worked out at 85%.

`COCC(C#N)(CCc1ccccc1)c1cccnc1` (centres unmarked) [Compound 6]: the pest or weed control at 1000 µg/mL in the assay with Erysiphe polygoni amounted to 100%; with Uromyces phaseoli, 50%; in the assay with Pyricularia oryzae, 0%. Besides, the inhibition at 500 µg/mL is 100% in the assay with Scierotinia minor; 100% in the assay on Botrytis cinerea; 95% in the assay on Colletotrichum gossypii; 93% in the assay with Fusarium oxysporum; 50% in the assay on Pythium ultimum; 0% in the assay on Septoria nodorum. In the assay on Erysiphe cichoracearum, the “Percent Reduction of Disease, CMS” value was determined as 100%. Moreover, the “Percent Reduction of Disease, BMS” value in the assay on Erysiphe graminis stood at 100%.

For `C=C(Cl)CC(C#N)(CCc1ccc(F)cc1)c1cccnc1` (centres unmarked) [Compound 65], the pest or weed control at 1000 µg/mL with Erysiphe polygoni was 100%; with Uromyces phaseoli, 50%. Moreover, the inhibition at 500 µg/mL in the assay with Scierotinia minor, in the assay with Botrytis cinerea, in the assay with Colletotrichum gossypii, in the assay with Fusarium oxysporum, with Pythium ultimum and in the assay with Septoria nodorum was 100% in each case. Further, the “Percent Reduction of Disease, CMS” value in the assay on Erysiphe cichoracearum came out at 0%. For the same compound, in the assay with Erysiphe graminis, the “Percent Reduction of Disease, BMS” value came to 0%.

On to `Cc1ccc(CCC(C#N)(CCCF)c2cccnc2)cc1` (centres unmarked) [Compound 81], for which the results for the pest or weed control at 1000 µg/mL with Erysiphe polygoni and in the assay with Uromyces phaseoli were 100% and 90%, respectively. Besides, the inhibition at 500 µg/mL was determined as 0% in the assay on Scierotinia minor; 30% with Botrytis cinerea; 20% in the assay on Colletotrichum gossypii; 20% in the assay on Fusarium oxysporum; 20% with Pythium ultimum; 40% in the assay with Septoria nodorum. The “Percent Reduction of Disease, CMS” value with Erysiphe cichoracearum is recorded as 0%. Moreover, in the assay on Erysiphe graminis, the “Percent Reduction of Disease, BMS” value is 0%.

(Values after US5945436A, “Pyridylmethyl nitriles, amides and thioamides useful as fungicides” (Uniroyal Chemical Company, Inc., priority 1997, dated 1999).)
